Experiments:
[1] = tested on: chorioallantoic membrane of a chicken egg; test: Eye irritation assay (HET-CAM test); conditions: for OII (Ocular Irritation Index): calculated from H, V and C times; for Classification: interpretation of OII by Table 2; for Clotting time / Haemorrhage time / Vasoconstriction time: time when change appears, observed for 5 minutes
Excerpt: With the aim of proposing potential uses of the gel in ocular applications, the possible eye irritation of this material was studied by means of a HET-CAM test. The gel formed from HSPC and OA with a molar ratio of 3:1 and a total lipid concentration of 5% was directly applied to the chorioallantoic membrane of a chicken egg due to its similarity to the human cornea. The appearance of vascular lesion or clotting in response to a compound is the basis for using this technique as an indicator of the probability that a substance may harm the mucous membranes, especially the cornea of the human eye, in vitro. In order to execute the method, the egg shell is carefully removed, moistening the membrane with a NaCl solution at 37° C. Next, the NaCl is removed and the white membrane is removed without harming any blood vessel. Next, the gel sample is applied and the appearance of haemorrhage (H), vasoconstriction (V) and/or clotting (C) can be observed for 5 minutes. Lastly, the Ocular Irritation Index (OII) is estimated using the following formula: [formula] H, V and C are the time in seconds when this change appears. If there is no alteration, they are equal to 300. The result obtained from the formula can be interpreted on the basis of Table 2: [table]

[2] = in vitro cutaneous permeation assay on pig skin, fluorescence microscopy; format: in vitro ADME
Description: In order to evaluate the potential of these gels as cutaneous application systems, an in vitro permeation assay was conducted on pig skin and observations were made using fluorescence microscopy. Two gels were formed which were applied to the skin surface. One of them was formed by incorporating a red fluorescent probe (Rhodamine B) in order to observe in which areas of the skin the gel-forming phospholipids are retained. In the other gel, a fluorescent green probe (fluorescein) was added in the aqueous phase with the aim of simulating a possible water-soluble active ingredient incorporated to the gel. The gel was gently applied to the skin and left to permeate overnight at 37° C. in a humid environment. Next, the skin was cut into sections and the cells marked in blue in order to distinguish the different skin layers.

SMILES	OII (Ocular Irritation Index) [1]	Classification [1]	Clotting time [1]	Haemorrhage time [1]	Vasoconstriction time [1]	skin permeation of fluorescein from aqueous solution ([2]; control, aqueous solution with fluorescein without incorporating the gel)	skin permeation of fluorescein dissolved in the aqueous phase of the gel ([2]; fluorescein in gel, overnight at 37° C., FIG. 6)
[Na+].[OH-] [NaOH]	17.79	Irritating (9-21)	20 s	28 s	13 s		
O=C1OC2(c3ccc(O)cc3Oc3cc(O)ccc32)c2ccccc21 [fluorescein]						only slightly incorporated in the stratum corneum	capable of permeating the skin, covering the entire stratum corneum and epidermis
CCCCCCCCCCCCOS(=O)(=O)[O-].[Na+] [1% SDS, SDS]	3.23	Mildly	0 s	110 s	0 s		

Reference: patent publication US12208163B2, “Nanostructured lipid gel, method for preparation and use” (CONSEJO SUPERIOR DE INVESTIGACIONES CIENTÍFICAS, priority 2018, dated 2025)
